Data set [1] has as its system IL-23 induced STAT3 signaling in HEK-Blue™ IL-23 cells. Briefly: IL-23 induced STAT3 signaling in HEK-Blue IL-23 cells (SEAP reporter). Type of data set: cell-based. The conditions noted are these: human IL23 0.25 ng/ml, read-out: pSTAT3. In a few lines: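 Secreted SEAP, read at OD 620-655 nm after 45 min QUANTI-Blue development, reports STAT3 activation. Beforehand, cells were exposed to peptide dilutions for 60 min at 37 °C and then to 0.25 ng/ml final human IL-23 overnight, at 10,000 cells/well.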

A further data set deals with T1, Pepsin.
T1 construct: purchased Merck Millipore
Briefly: Protease stability in simulated gastric fluid (Pepsin-SGF, FaSSGF). The data set is classed as in vitro ADME. The settings on record: simulated gastric fluid with pepsin (Pepsin-SGF), 60 min, 1 μM peptide, 37° C., read-out: FaSSGF 60 (min), remaining percent of peptide. The method in brief: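 LCMS/MS peak areas, normalised to the time-0 sample as 100%, give percent remaining. Conditions: 37° C incubation of 1 μM final peptide in simulated gastric fluid with pepsin; ethanol/0.1% HCOOH quench at 0, 60, 120, 240 min.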

Data set [2] is described as follows: Chemical stability assessment of peptides (relative purity loss). The conditions noted are these: 24 hours at 37° C.; for Chemical stability (relative purity loss) Buffer pH 1.2: 50 mM HCl pH 1.2 + acetonitrile (1:1); for Chemical stability (relative purity loss) Buffer pH 6.5: 50 mM phosphate buffer pH 6.5 + acetonitrile (1:1); for Chemical stability (relative purity loss) Buffer pH 7.4: 50 mM phosphate buffer pH 7.4 + acetonitrile (1:1). Type of data set: physicochemical. In a few lines: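 Peptide solutions at 1 mg/ml (purity-corrected) in 1:1 acetonitrile with 50 mM HCl pH 1.2, or 50 mM phosphate pH 6.5 or pH 7.4, held 24 hours at 2° C. and 37° C. Supernatants analysed by UHPLC-UV; relative purity loss taken as percent drop in peak-area purity from 0 to 24 hours at 37° C.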

Data set [3] has as its target T2, human interleukin-23 receptor (recombinant human IL-23R-Fc chimera) (Homo sapiens, UniProt Q5VWK5).
T2 construct: Fc (IgG Fc fusion)
Briefly: Human ELISA IL23/IL23R (assay for specific human IL23R antagonists). Type of data set: binding. The settings on record: Table 10; read-out: Human ELISA IL23/IL23R IC50. In a few lines: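 Competition format: peptide dilutions compete for IL23R-Fc chimera (0.1 μg/ml final, 60 min, room temperature) binding to immobilized human IL23 coated at […] overnight at 4 °C. Read-out is fluorogenic HRP signal from goat anti-hu-IgG1 detecting captured receptor.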

Data set [4] can be described thus: Solubility testing of peptides at different pH. The data set is classed as physicochemical. The conditions noted are these: target concentration 1 mg/ml, 2 hours agitation. In a few lines: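 Four buffers were used: 50 mM HCl pH 1.2 and 50 mM phosphate at pH 6.5, 7.4 and 9.0, each receiving dried-down compound at a 1 mg/mL target. After 2 h gentle shaking and 0.45 μm filtration, UV peak areas were compared with a DMSO standard curve of known concentration, allowing for extinction coefficients.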

Where [5] appears, read: 50 mM HCl buffer, 50 mM HCl pH 1.2, read-out: Solubility Buffer pH 1.2.
Where [6] appears, read: 50 mM phosphate buffer pH 6.5, read-out: Solubility Buffer pH 6.5.
[7] abbreviates: 50 mM phosphate buffer pH 7.4, read-out: Solubility Buffer pH 7.4.
[8] abbreviates: 50 mM phosphate buffer pH 9.0, read-out: Solubility Buffer pH 9.0.

The source of these data is patent US20260258084A1, “New Peptides as Selective IL-23 Receptor Antagonists” (Sanofi, priority 2022, published 2026).

The structures appear in SMILES notation. Converted amounts (≈) assume the structure as drawn. Like-named read-outs stand apart in the source and are kept apart here. Starred links: 1 amine or outer side, 2 acyl side, 3 side chain; linkers in the order of their positions; H or OH if unused. Positions of bridges follow the written chain, without caps; N, C: chain ends. Non-standard residues stand in square brackets, D forms with d. Residues, ends and D or L forms follow the SMILES beside them. *: point of attachment. X3 = CN(CCCCC(=O)N[C@@H](CS[*:2])C(=O)[*:1])[*:3]; Trp(7-Me) = Cc1cccc2c(C[C@H](N)C(=O)O)c[nH]c12; 2Nal = N[C@@H](Cc1ccc2ccccc2c1)C(=O)O; AEF = NCCOc1ccc(C[C@H](N)C(=O)O)cc1; αMeL = CC(C)C[C@](C)(N)C(=O)O; Me2NCH2CH2 = CN(C)CC*; Aib = CC(C)(N)C(=O)O; Ava = NCCCCC(=O)O; Sar = CNCC(=O)O

A word on the fraction remaining: it is what is left of the initial amount, in per cent. In general, solubility refers to the concentration that dissolves in the medium under given conditions. Take `CC(C)C[C@@H](NC(=O)[C@H](CC(N)=O)NC(=O)[C@@H]1CCC(=O)NCCCCC(=O)N[C@H]2CSSC[C@H](NC(=O)[C@H](CCC(N)=O)NC(=O)[C@H](Cc3c[nH]c4ccccc34)NC(=O)[C@H]([C@@H](C)O)NC(=O)[C@H](CC(N)=O)NC2=O)C(=O)N[C@@H](Cc2ccc(OCCN(C)C)cc2)C(=O)N[C@@H](Cc2ccc3ccccc3c2)C(=O)N[C@@](C)(CC(C)C)C(=O)N1)C(N)=O` [compound 10] ([Ava]CNTWQCY(Me2NCH2CH2)[2Nal][αMeL]EN[dL]-NH2; disulfide 2-7; lactam N-11): the IC50 was found to be 25.8 nM in data set [1] and 0.58 nM in data set [3]. Besides, in the data set on Pepsin, the share remaining at 1 h, 1 µM was 77%. In addition, the “Chemical stability (relative purity loss) Buffer pH 1.2” value in data set [2] worked out at 6.7%. Further, the “Chemical stability (relative purity loss) Buffer pH 6.5” value in data set [2] was 0.1%. Besides, the “Chemical stability (relative purity loss) Buffer pH 7.4” value in data set [2] worked out at 0.4%. Also, the solubility at 2 h in data set [4] (setting [5]) was less than 10 µg/mL; in data set [4] (setting [6]), 70 µg/mL (≈ 40.1 µM); in data set [4] (setting [7]) it was 10 µg/mL (≈ 5.72 µM); in data set [4] (setting [8]), less than 10 µg/mL.

On to `CC(C)C[C@]1(C)NC(=O)[C@H](Cc2ccc3ccccc3c2)NC(=O)[C@H](Cc2ccc(OCCN(C)C)cc2)NC(=O)[C@@H]2CSSC[C@H](NC(=O)CCCCNC(=O)CC[C@@H](C(=O)N[C@@H](CC(N)=O)C(=O)N[C@@H](CC(N)=O)C(N)=O)NC1=O)C(=O)N[C@@H](CC(N)=O)C(=O)N[C@@H]([C@@H](C)O)C(=O)N[C@@H](Cc1c[nH]c3ccccc13)C(=O)N[C@@H](CCC(N)=O)C(=O)N2` [compound 27] ([Ava]CNTWQCY(Me2NCH2CH2)[2Nal][αMeL]ENN-NH2; disulfide 2-7; lactam N-11), for which the figures for the IC50 in data set [1] and in data set [3] were 1.71 nM and 0.4 nM, respectively. In addition, the amount remaining at 1 h, 1 µM with Pepsin was 82%. The “Chemical stability (relative purity loss) Buffer pH 1.2” value in data set [2] is listed as 23.8%. In addition, the “Chemical stability (relative purity loss) Buffer pH 6.5” value in data set [2] is 0.0%. In addition, the “Chemical stability (relative purity loss) Buffer pH 7.4” value in data set [2] was found to be 8.7%. In addition, the solubility at 2 h in data set [4] (setting [5]) was not below 890 µg/mL; in data set [4] (setting [6]), not below 870 µg/mL; in data set [4] (setting [7]) it was 810 µg/mL (≈ 463 µM); in data set [4] (setting [8]), 270 µg/mL (≈ 154 µM).

Turning to `CC(=O)N[C@H]1CCCCNC(=O)[C@@H]2CSSC[C@H](NC(=O)[C@H](CCC(N)=O)NC(=O)[C@H](Cc3c[nH]c4ccccc34)NC1=O)C(=O)N[C@@H](Cc1ccc(OCCN)cc1)C(=O)N[C@@H](Cc1ccc3ccccc3c1)C(=O)NC(C)(C)C(=O)N[C@H](C(=O)N[C@@H](CC(N)=O)C(=O)NCC(N)=O)CCC(=O)N(C)CCCCC(=O)N2` [compound 15] (Ac-KWQC[AEF][2Nal][Aib]ENG-NH2; linker 1-4-8 via X3), the values for the IC50 in data set [1] and in data set [3] were 29.2 nM and 0.2 nM, respectively. In addition, the fraction remaining at 1 h, 1 µM in the data set on Pepsin is 30%. For the same molecule, in data set [2], the “Chemical stability (relative purity loss) Buffer pH 1.2” value came out at 14.3%. In addition, the “Chemical stability (relative purity loss) Buffer pH 6.5” value in data set [2] is 2.9%. The “Chemical stability (relative purity loss) Buffer pH 7.4” value in data set [2] is 5.1%. Further, the solubility at 2 h in data set [4] (setting [5]) was not below 970 µg/mL; in data set [4] (setting [6]), not below 960 µg/mL; in data set [4] (setting [7]), not below 910 µg/mL; in data set [4] (setting [8]), 670 µg/mL (≈ 421 µM).

As for `CC(=O)NCCCC[C@@H]1NC(=O)[C@H](Cc2c[nH]c3c(C)cccc23)NC(=O)[C@H]([C@@H](C)O)NC(=O)[C@H](CC(N)=O)NC(=O)[C@@H]2CSSC[C@H](NC1=O)C(=O)N[C@@H](Cc1ccc(OCCN(C)C)cc1)C(=O)N[C@@H](Cc1ccc3ccccc3c1)C(=O)N[C@@](C)(CC(C)C)C(=O)N[C@H](C(=O)N[C@@H](CC(N)=O)C(=O)N[C@@H](Cc1c[nH]cn1)C(=O)N(C)CC(N)=O)CCC(=O)NCCCCC(=O)N2` [compound 47] ([Ava]CNT[Trp(7-Me)]K(Ac)CY(Me2NCH2CH2)[2Nal][αMeL]ENH[Sar]-NH2; disulfide 2-7; lactam N-11), the IC50 in data set [1] worked out at 0.57 nM; in data set [3], 0.31 nM. Besides, the share remaining at 1 h, 1 µM with Pepsin was 96%. Also, the “Chemical stability (relative purity loss) Buffer pH 1.2” value in data set [2] is 2.9%. The “Chemical stability (relative purity loss) Buffer pH 6.5” value in data set [2] was found to be 0.6%. The “Chemical stability (relative purity loss) Buffer pH 7.4” value in data set [2] turned out to be 0.9%. For the same molecule, the solubility at 2 h was not below 1000 µg/mL in data set [4] (setting [5]), not below 950 µg/mL in data set [4] (setting [6]), 540 µg/mL (≈ 284 µM) in data set [4] (setting [7]) and 110 µg/mL (≈ 57.9 µM) in data set [4] (setting [8]).

For `COc1ccc(C[C@@H]2NC(=O)[C@@H]3CSSC[C@H](NC(=O)CCCCNC(=O)CC[C@@H](C(=O)N[C@@H](CC(N)=O)C(=O)NCC(N)=O)NC(=O)C(C)(C)NC(=O)[C@H](Cc4ccc5ccccc5c4)NC2=O)C(=O)N[C@@H](CC(N)=O)C(=O)N[C@@H]([C@@H](C)O)C(=O)N[C@@H](Cc2c[nH]c4ccccc24)C(=O)N[C@@H](CCC(N)=O)C(=O)N3)cc1` [compound 4] ([Ava]CNTWQCY(Me)[2Nal][Aib]ENG-NH2; disulfide 2-7; lactam N-11), the IC50 turned out to be 34.8 nM in data set [1] and 0.95 nM in data set [3]. Besides, in the data set on Pepsin, the amount remaining at 1 h, 1 µM is 1%. Also, the “Chemical stability (relative purity loss) Buffer pH 1.2” value in data set [2] worked out at 22.4%. In data set [2], the “Chemical stability (relative purity loss) Buffer pH 6.5” value was determined as 0.7%. The “Chemical stability (relative purity loss) Buffer pH 7.4” value in data set [2] came out at 7.0%. Besides, the solubility at 2 h in data set [4] (setting [5]) stood at 30 µg/mL (≈ 18.8 µM); in data set [4] (setting [6]), 20 µg/mL (≈ 12.6 µM); in data set [4] (setting [7]) it was 20 µg/mL (≈ 12.6 µM); in data set [4] (setting [8]), 10 µg/mL (≈ 6.28 µM).
